Results from article PMC3621174, “A cell based high-throughput screening approach for the discovery of new inhibitors of respiratory syncytial virus” (Virology Journal, 2013).
pEC50: −log10 of the molar value. Read-outs that look alike come from different tables or passages of the source.

Experiments:
RSV strain Long = experiment: Plaque reduction assay in HEp-2 cells; type: cell-based, Human respiratory syncytial virus; conditions: 25 μM test compound, MOI 0.1, HEp-2
Experimental: These compounds were evaluated for their ability to reduce the amount of infectious virus produced in cell culture. HEp-2 cells were infected with hRSV in the presence of 25 μM test compound. Media supernatants were removed and 10-fold serial-diluted onto a confluent field of uninfected, untreated HEp-2 cells, bound, washed, and overlaid with agarose. After six days, plaques were fixed, stained, and counted to determine the amount of infectious virus in the original, drugged supernatants (Figure 8).
Figure 8 Plaque reduction assay in HEp-2 cells. RSV strain Long was assayed for its sensitivity to five compounds. Supernatants were harvested from test (25 μM) or control compound (35 μM) treated RSV-infected HEp-2 cells at a multiplicity of infection (MOI) of 0.1. Serial dilutions of the supernatants were added to monolayers of HEp-2 cells in 24-well plates. Cells were fixed after 6 days and stained with neutral red. Plaque reduction assays were performed in triplicate per compound. CC, uninfected cell control; VC, untreated virus-infected control. The concentration of DMSO in each assay well, including all control wells was 0.5%.
Compounds or carrier control (DMSO) were diluted in Complete DMEM/F12 and 2 mL per well was dispensed to 6-well assay plates (final plate well concentration was 25 μM, ribavirin; 35 μM and final DMSO concentration 0.5%). […]

hRSV (strain Long) [1] = experiment: 384-well CPE inhibition assay, hRSV-infected HEp-2 cells, Cell Titer Glo endpoint; type: cell-based; conditions: human respiratory syncytial virus, 144 h; HEp-2, virus MOI = 0.5, 8 point dose response 50-0.39 uM, 6 days, triplicate; read-out: EC50 (efficacy)
Experimental: (§1) Figure 3 Dose response of ribavirin. HEp-2 cells were plated in 384-well black tissue culture plates at 2,000 cells per well. Ribavirin or carrier control (DMSO) were diluted to 6x in Complete DMEM/F12 and serially diluted 1:2 resulting in an 8 point dose response dilution series. (final plate well concentration ranging from 50 uM to 0.39 uM and a final DMSO concentration of 0.5%). For dose response screening, cells were infected with a 1:500 dilution of virus (viral MOI = 0.5). The assay plates were incubated for six days at 37°C, 5% CO2 and 90% relative humidity and the inhibitory effects of the drug were assessed using Cell Titer Glo. […]
(§2) Following the six day incubation period, the assay plates were equilibrated to room temperature for 30 min. […] At the end of the incubation, luminescence was measured using a multi-label reader (Envision, PerkinElmer, Wellesley, MA) with an integration time of 0.1 s.
(§3) HTS data were analyzed using ActivityBase software (IDBS, Inc., Guildford, UK). Antiviral activity is described as percent CPE inhibition = 100*((luminescence compound well minus median luminescence virus control)/ (median luminescence cell control minus median luminescence virus control)). Percent viability = 100 * luminescence compound well/median luminescence cell control. […] Two dose-response curves were calculated for each substance. […] The selective index (SI) was calculated as SI = CC50/EC50. […]

[2] = Cytotoxicity dose response in HEp-2 cells (Cell Titer Glo); type: cell-based; conditions: human, HEp-2, 8 point dose response, duplicate
Experimental: as §1, §2, §3

hRSV (strain Long) [3] = tested on: hRSV (strain Long); parameters: method as in PMID 14638398; conditions: previously reported value; cited from earlier work

| Structure (SMILES) | reduction in virus titer (pfu/mL) from control (RSV strain Long) [log] | pEC50 (hRSV (strain Long) [1]) | CC50 at 6 days [2] [µM] | pEC50 (hRSV (strain Long) [3]) |
| --- | --- | --- | --- | --- |
| COc1ccccc1CNC(=O)C1CCN(S(=O)(=O)c2cccc3nonc23)CC1 [compound 93616803] | 4 | – | – | – |
| O=C(O)C1CC=CCC1C(=O)Nc1ccc(S(=O)(=O)N2CCCc3ccccc32)cc1 (centres unmarked) [SID 93616804] | 6.5 | – | – | – |
| NC(=O)c1ncn([C@@H]2O[C@H](CO)[C@@H](O)[C@H]2O)n1 [ribavirin] | – | ~4.40 | ~75 | 4.39 |
